The values that follow are results of earlier work, collected in patent publication US20220400668A1, “MICROEMULSION COMPOSITIONS OF TOPRAMEZONE” (BASF SE, priority 2018, published 2022).

The conditions of this data set: 25° C.

Each structure is given as a SMILES string.

With `Cc1c(C(=O)c2cnn(C)c2O)ccc(S(C)(=O)=O)c1C1=NOCC1` [topramezone, 4-[3-(4,5-dihydro-1,2-oxazol-3-yl)-2-methyl-4-methylsulfonylbenzoyl]-2-methyl-1H-pyrazol-3-one], the solubility in water result is “about 0.305 g/L”.
